Measured values as given in PubChem BioAssay AID1963985 (Molecular Pharmacology Branch, DTP, NCI, 2024).

System: 252836-082-R-J2-PDC tumor spheroids, viability
Test: Anticancer human tumor 252836-082-R-J2-PDC patient-derived head and neck squamous cell carcinoma cell line growth inhibition [PI3K]
Settings: spheroids with HUVEC and MSC; for IC50: curve of first compound; for viability, T/C: stronger effect = lower value
From the text: Combinatorial screen of targeted agents with the PI3K inhibitors inavolisib, alpelisib, duvelisib, and copanlisib in multi-cell type tumor spheroids
A high-throughput screen of multi-cell type tumor spheroids was designed to identify active combinations of targeted small molecules and PI3K pathway inhibitors. Complex spheroids include a stromal component modeled by human endothelial cells (HUVEC) and fibroblasts modeled by human mesenchymal stem cells (MSCs). The concentration ranges selected for each drug and investigational agent were based upon clinically achievable concentrations if the clinical Cmax of the agent was known.
Compounds. The drugs and investigational agents: inavolisib (NSC800729), alpelisib (NSC765974), duvelisib (NSC772469), copanlisib (NSC816437), ipatasertib (NSC767898), afuresertib (NSC778305), talazoparib (NSC767125), sapanisertib (NSC764658), selumetinib (NSC741078), tovorafenib (DAY101, NSC766906), vemurafenib (NSC761431), ravoxertinib (NSC781343), sotorasib (NSC818433), MRTX1133 (NSC 836407), abemaciclib (NSC 768073), palbociclib (NSC758247), venetoclax (NSC 766270), SY5609 (NSC837396), enzalutamide (NSC755605), and darolutamide (NSC825331), were obtained from the National Cancer Institute (NCI) Developmental Therapeutics Program Chemical Repository. The FDA-approved anticancer drug set is available from the NCI Developmental Therapeutics Program. […] The stock solutions were prepared in dimethyl sulfoxide (DMSO, Sigma-Aldrich, St. Louis, MO, cat. D2650) at 800-fold the tested concentration and stored at -70 degrees C prior to their use. All drugs and investigational agents were tested over a range starting from a high concentration at or near the clinical Cmax and decreasing in half-log increments. If the clinical Cmax for an agent had not been determined, the highest concentration tested was 10 microM.
Cell Culture. All cells were maintained in an incubator at 37 degrees C and 5% CO2 with 95% humidity. The PDC lines were cultured according to standard operating procedures established by the NCI PDMR (https://pdmr.cancer.gov/sops/default.htm). All PDCs were thawed and cultured in Matrigel-coated flasks prepared with a working solution of 1X Ham's F-12 nutrient mix, without supplementation (Invitrogen, Waltham, MA, cat. 11765054), 100 U/mL penicillin-streptomycin (Invitrogen, cat. 15140122), and 2.5% Matrigel (Corning Inc., Corning, NY, cat. 354248) for the first three passages. The 354836-022-R-J1-PDC, 475296-252-R-J1-PDC, and 997726-040-R-J2-PDC lines were cultured in 6A media, which includes advanced DMEM/F-12 (Thermo Fisher Scientific, cat. 12634028), 10 mM HEPES (Thermo Fisher Scientific, cat. 15630080), 1X GlutaMAX supplement (Thermo Fisher Scientific, cat. 35050061), 0.1 mg/mL primocin (InvivoGen, San Diego, CA, cat. ant-pm-2), 10% defined fetal bovine serum, heat inactivated (HyClone Laboratories Inc., Logan, UT, cat. SH30070.03HI), 50% L-WRN conditioned media (ATCC, cat. CRL-3276), 1.25 mM N-Acetyl-L-cysteine (Sigma-Aldrich, cat. A9165), 10 mM nicotinamide (Sigma-Aldrich, cat. N0636), 1X B-27 supplement (Thermo Fisher Scientific, cat. 17504044), 1X N-2 supplement (Thermo Fisher Scientific, cat. 17502048), and 10 microM Y-27632 dihydrochloride (Tocris Bioscience, Bristol, United Kingdom, cat. 1254). The 624824-186-R-J2-PDC line was cultured in 6C/Colon 1B media, which includes all 6A media components plus 50 ng/mL human EGF recombinant protein (Thermo Fisher Scientific, cat. PHG0311). […]
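Further: spheroids exposed to agents for seven days before readout.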
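Wherever viability, T/C is given: percent of vehicle DMSO control viability so 100% = untreated growth.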

- IC50 (second compound 0.00316 µM): > 3000 nM
- IC50 (second compound 0.01 µM): 2420 nM
- IC50 (second compound 0.0316 µM): 1500 nM
- IC50 (second compound 0.1 µM): 558 nM
- IC50 (second compound 0.316 µM): < 9.49 nM
- IC50 (second compound 1 µM): < 9.49 nM
SMILES: Cn1cnc2c(F)c(Nc3ccc(Br)cc3Cl)c(C(=O)NOCCO)cc21 + CC(Nc1ccc2c(c1)OCCn1cc(N3C(=O)OCC3C(F)F)nc1-2)C(N)=O
- viability, T/C (second compound 0.00316 µM, first compound 0.00949 µM): 81.4%
- viability, T/C (second compound 0.00316 µM, first compound 0.03 µM): 73.8%
- viability, T/C (second compound 0.00316 µM, first compound 0.0949 µM): 86.3%
- viability, T/C (second compound 0.00316 µM, first compound 0.3 µM): 79.6%
- viability, T/C (second compound 0.00316 µM, first compound 0.949 µM): 72.4%
- viability, T/C (second compound 0.00316 µM, first compound 3 µM): 52.1%
- viability, T/C (second compound 0.01 µM, first compound 0.00949 µM): 81.7%
- viability, T/C (second compound 0.01 µM, first compound 0.03 µM): 71.2%
- viability, T/C (second compound 0.01 µM, first compound 0.0949 µM): 78.5%
- viability, T/C (second compound 0.01 µM, first compound 0.3 µM): 76.9%
- viability, T/C (second compound 0.01 µM, first compound 0.949 µM): 73.8%
- viability, T/C (second compound 0.01 µM, first compound 3 µM): 44.5%
- viability, T/C (second compound 0.0316 µM, first compound 0.00949 µM): 66.1%
- viability, T/C (second compound 0.0316 µM, first compound 0.03 µM): 60.7%
- viability, T/C (second compound 0.0316 µM, first compound 0.0949 µM): 77.9%
- viability, T/C (second compound 0.0316 µM, first compound 0.3 µM): 65.2%
- viability, T/C (second compound 0.0316 µM, first compound 0.949 µM): 55.1%
- viability, T/C (second compound 0.0316 µM, first compound 3 µM): 42.4%
- viability, T/C (second compound 0.1 µM, first compound 0.00949 µM): 58.9%
- viability, T/C (second compound 0.1 µM, first compound 0.03 µM): 54.7%
- viability, T/C (second compound 0.1 µM, first compound 0.0949 µM): 58.4%
- viability, T/C (second compound 0.1 µM, first compound 0.3 µM): 51.7%
- viability, T/C (second compound 0.1 µM, first compound 0.949 µM): 47.8%
- viability, T/C (second compound 0.1 µM, first compound 3 µM): 31.4%
- viability, T/C (second compound 0.316 µM, first compound 0.00949 µM): 49.9%
- viability, T/C (second compound 0.316 µM, first compound 0.03 µM): 47.6%
- viability, T/C (second compound 0.316 µM, first compound 0.0949 µM): 47.5%
- viability, T/C (second compound 0.316 µM, first compound 0.3 µM): 46.3%
- viability, T/C (second compound 0.316 µM, first compound 0.949 µM): 30.8%
- viability, T/C (second compound 0.316 µM, first compound 3 µM): 18.2%
- viability, T/C (second compound 1 µM, first compound 0.00949 µM): 42.5%
- viability, T/C (second compound 1 µM, first compound 0.03 µM): 40%
- viability, T/C (second compound 1 µM, first compound 0.0949 µM): 37%
- viability, T/C (second compound 1 µM, first compound 0.3 µM): 38%
- viability, T/C (second compound 1 µM, first compound 0.949 µM): 29.1%
- viability, T/C (second compound 1 µM, first compound 3 µM): 13.3%
